# Test results published in patent US20260232699A1, “COMPOSITIONS OF A CANNABINOID AND A KINASE INHIBITOR FOR THE TREATMENT OF CANCER” (SINOVEDA CANADA INC., priority 2023, published 2026).
# What was measured:
# [1] = sorafenib, cited from earlier work
# HepG2 cells = assay: rtPCR gene expression analysis (TaqMan array card); assay type: cell-based, human; details: 6 h at IC50 concentration, relative to negative control
# Description: Target cancer gene pathways were analyzed using a custom Taqman® array card exploring 90 unique genes associated with cancer related pathways (Kanehisa, Goto et al. 2010).
# Two million HepG2 cells in IMDM media with 20% FBS, and 1% ethanol were seeded in T75 flasks and incubated at 37° C., 7.5% CO2 until 70-80% confluent (approx. […]). […] Untreated cells were included as a negative control. Glyceraldehyde-3-phosphate dehydrogenase (GAPDH) was included as an endogenous control and used for normalization of the data.
# Following a 6-hour incubation with the test compounds, the RNA was extracted using Invitrogen's Dynabead mRNA DIRECT kit using the recommended protocol to provide 50 μL of a purified mRNA solution. Fifty μL of RT master mix was mixed into the mRNA solution and the mixture left to react at 37° C. for 60 minutes. Reverse transcriptase inactivation was performed at 95° C. for 5 minutes and the resulting cDNA samples were kept at 4° C. until use. Fifty-five microliters of TaqMan Fast Advance master mix were added to an equal amount of cDNA sample containing 1 μg/100 μl of cDNA, which was loaded into each card reservoir. The cards were centrifuged twice at 1200 RPM for 3 minutes in a Legend XFR centrifuge and the rtPCR reaction was conducted in a QuantStudio7 PCR instrument using the recommended settings with 40 amplification cycles. Data processing was done using ThermoFisher's Connect™ application.
# [2] = tested on: pool of normal hepatocytes (HC3_23); assay: Normal hepatocyte toxicity, Calcein-AM; assay type: cell-based; details: Homo sapiens, 48-hour incubation, William's E media
# Description: To evaluate the safety margin of the compounds prior to clinical trials, the toxicity of the compounds toward a pool of normal hepatocytes was investigated in-house using a hepatocyte pool obtained from Xenotech (HC3_23). Cells were thawed and plated in 96 well, black walled, gamma-irradiated plates (100 μl) after reconstitution in William's E media with Gibco hepatocellular maintenance supplement. Following an 18-hour recovery period, the media was exchanged with the same media containing 9 serial dilutions of the test compound mixtures (8 to 2000 μg/ml). Experiments were performed in triplicate. Following a 48-hour incubation period, Calcein-AM was added to provide a final concentration of 7 ng/ml to each well and allowed to react for 60 minutes before readings were acquired (excitation 494 nm, emission 517 nm). Data were fit to sigmoidal curves using four-point logistic curve fitting software and the 50% inflection points used for IC50 values.
smiles,measurement,setting,value
CNC(=O)c1cc(Oc2ccc(NC(=O)Nc3ccc(Cl)c(C(F)(F)F)c3)cc2)ccn1 [Sorafenib],"Solubility, μg/ml FaSSIF","[1]; fasted simulated intestinal fluid, value marked [1]",3.3 [1] μg/ml
same,F (oral bioavailability),[1]; value marked [1],0.38-0.49[1]
same,ClH (Hepatic clearance),[1]; value marked [3],~0.051-0.066[3] L/min
same,ClTB (Total body clearance),[1]; value marked [3],0.051-0.066[3] L/min
same,"Vd, ss (Volume of distribution at steady state)",[1]; value marked [3],1.01-1.3[3] L/kg
same,t½ (Half-life),[1]; value marked [3],14.09-18.23[3] hours
same,ΔΔCt VEGFA,HepG2 cells; Angiogenesis,−2.101
same,ΔΔCt CAMK1,HepG2 cells; Ca Signaling,−1.249
same,ΔΔCt BAD,HepG2 cells; Cell Cycle,−1.712
same,ΔΔCt BAX,HepG2 cells; Cell Cycle,−1.835
same,ΔΔCt BCL2L1,HepG2 cells; Cell Cycle,−1.67
same,ΔΔCt BECN1,HepG2 cells; Cell Cycle,−1.627
same,ΔΔCt CCND2,HepG2 cells; Cell Cycle,−2.012
same,ΔΔCt CDK2,HepG2 cells; Cell Cycle,−1.072
same,ΔΔCt CDK4,HepG2 cells; Cell Cycle,−1.315
same,ΔΔCt CDK6,HepG2 cells; Cell Cycle,−1.273
same,ΔΔCt MAX,HepG2 cells; Cell Cycle,−1.278
same,ΔΔCt MNT,HepG2 cells; Cell Cycle,−1.155
same,ΔΔCt CTNNB1,HepG2 cells; Cellular Adhesion,−1.355
same,ΔΔCt MITF,HepG2 cells; Drug Resistance,−2.782
same,ΔΔCt TEAD2,HepG2 cells; HIPPO,−1.447
same,ΔΔCt SMO,HepG2 cells; Hedge Hog signaling,−1.125
same,ΔΔCt STAT1,HepG2 cells; JAK-STAT,−1.284
same,ΔΔCt ERBB2,HepG2 cells; MAP kinase,2.729
same,ΔΔCt MAP1LC3A,HepG2 cells; MAP kinase,−1.658
same,ΔΔCt MAP2K2,HepG2 cells; MAP kinase,−1.241
same,ΔΔCt MAP3K1,HepG2 cells; MAP kinase,−2.162
same,ΔΔCt MAPK8,HepG2 cells; MAP kinase,−1.245
same,ΔΔCt RASA1,HepG2 cells; MAP kinase,−2.013
same,ΔΔCt CRK,HepG2 cells; PI3K pathway,−3.778
same,ΔΔCt PIK3C2A,HepG2 cells; PI3K pathway,−2.308
same,ΔΔCt PIK3CA,HepG2 cells; PI3K pathway,−1.501
same,ΔΔCt PTEN,HepG2 cells; PI3K pathway,−1.165
same,ΔΔCt SMAD2,HepG2 cells; TGF signaling,−1.348
same,ΔΔCt GSK3B,HepG2 cells; Wnt signaling,−1.105
same,ΔΔCt ROCK1,HepG2 cells; Wnt signaling,−1.495
same,IC50,[2],70.1 µg/mL
